# According to PMC10762078, “Role of UPF1-LIN28A interaction during early differentiation of pluripotent stem cells” (Nature Communications, 2024):
# Ends that are not written are not given here.
# What was measured:
# [1] = tested on: nonsense-mediated mRNA decay (NMD); experiment: NMD reporter (Gl, GPx1) mRNA by RT-qPCR in LIN28A-expressing HeLa cells with CPP-peptides (Fig. 5c); type: cell-based; settings: for relative GPx1 mRNA level / relative Gl mRNA level: normalised to MUP
# Experimental: Fig. 5 CPP-conjugated peptide inhibits UPF1-LIN28A interaction. a Schematic representation of designated CPP-conjugated peptides. The amino acid sequences and positions of each peptide on UPF1 are indicated. CPP-P1 and -P2 served as negative controls. CPP-FITC was used to evaluate cell-penetrating ability in cells. b 293T cell lysates co-transfected with pCMV-MYC-UPF1 and pGEX-GST-LIN28A and incubated with the indicated CPP-conjugated peptides were employed for GST pull-down. c Relative levels of NMD reporters were measured in LIN28A-expressing HeLa cells incubated with the indicated CPP-conjugated peptides. mRNA level was normalised to that of MUP mRNA. d PLA was performed using LIN28A-overexpressing HeLa cells and hPSCs in the presence of indicated peptides. Red: fluorophore in amplified DNA circle, and Blue: DAPI stained nucleus. Scale bars, 50 μm. Unpaired Student’s t-test was used. Data are presented as mean values ± SEM. All statistical test used were two-sided. The minimum number of independent biological replicate experiments was b–d n = 3. The experiments were conducted three times, each iteration producing consistent results.
# (§1) For CPP-conjugated peptide delivery, HeLa, 293T, and PA-1 cells were incubated with CPP-conjugated peptides or CPP-FITC at 2 μM in DMEM with 10% FBS for 12 h a day before cell harvest. hPSCs were treated with CPP-conjugated peptides at 10 μM in mTeSR Plus Medium, and the peptide-containing medium was changed every day over 10 days. The ROCK inhibitor (Tocris Bioscience, Y-27632) treated-hPSCs were dissociated into single cells using Accutase (Merck, SCR005) and differentiated into ectoderm, mesoderm, and endoderm using the STEMdiff Trilineage Differentiation Kit ([…] Technologies, 05230) following the manufacturer’s protocol. Differentiated cells treated with CPP-conjugated peptides were analysed at 0, 3, and 5 days for ectoderm and endoderm, and at 0, 3, and 4 days for mesoderm.
# Total RNA purification and RT-qPCR
# Total RNA was extracted using TRIzol reagent (Invitrogen) according to the manufacturer’s protocol. After extraction, RNA was incubated with RQ1 RNase-Free DNase (Promega) to remove the exogenous and endogenous DNA.
# cDNA was synthesised using RevertAid Reverse Transcriptase (Thermo Fisher Scientific, EP0441) with synthesised random hexamer (Macrogen) for total RNA or stem-loop primers for miRNA. For RT-qPCR reactions, the SensiFAST SYBR No-ROX kit (Meridian Bioscience) was used according to the manufacturer’s protocol. All data analysis and visualisation were conducted using R 3.6.1 [www.r-project.org] or GraphPad Prism 10. RT primers for miRNA and RT-qPCR primer sequences are provided in Supplementary Data 6.
# Fold change in NMD efficiency represents the ratio of test NMD (PTC-containing transcript) to control NMD (PTC-free transcript), where NMD is the relative abundance of PTC-containing mRNA divided by the relative abundance of PTC-free mRNA. The abundance of MUP mRNA was used as the reference.
# CHA15 cells = experiment: Immunofluorescence counting of OCT4- and NANOG-positive cells (Fig. 6c); type: cell-based, human; settings: for NANOG-positive cells, fluorescence quantification, mean / OCT4-positive cells, fluorescence quantification, mean: CHA15, CPP-peptide 10 μM, mean of 4 sets; for NANOG fluorescence, difference between means vs P1 ± SEM / OCT4 fluorescence, difference between means vs P1 ± SEM: CHA15, vs CPP-P1
# Experimental: as §1
# hPSCs or differentiated cells were fixed in 4% paraformaldehyde (Sigma-Aldrich). After 15–20 min, the cells were washed with 0.1% bovine serum albumin in phosphate-buffered saline (BSA/PBS) thrice and blocked for 1 h by adding 0.3% Triton X-100 (Sigma-Aldrich) and 10% normal goat serum (NGS; Fitzgerald industries, NG22S). After blocking, cells were incubated with the following primary antibodies: anti-UPF1 (Cell Signaling Technology, 12040; 1:500), LIN28A (Cell Signaling Technology, 3978; 1:500), OCT4 (Santa Cruz, sc-5279; 1:500), NANOG (Cell Signaling Technology, 4903; 1:500), DLK1 (GeneTex, GTX60511; 1:500), SOX1 (Cell Signaling Technology, 4194; 1:500), or LHX2 (GeneTex, GTX129241; 1:500). Primary antibodies were incubated overnight at 4 °C followed by incubation with the following secondary antibodies: Cy3 (Jackson ImmunoResearch, 115-165-146; 1:500) or Alexa Fluor 488 (Invitrogen, A-11008; 1:500) followed by the incubation with secondary fluorescence-conjugated antibodies for 1 h. The cells were mounted in […] with DAPI mounting medium (Vector Laboratories, H1200).
# Immunofluorescence staining, proximity ligation assay imaging, and cell-penetrating efficiency of CPP-FITC were imaged with a confocal laser scanning microscope (Leica, TSC SP5) or immunofluorescence microscope (Leica, DM5000B). Z-stacks were captured, with sections spanning the entire cell. The LAS X Life Science program was used to obtain the maximum intensity projections and cross-sections of the confocal images.
# [2] = LIN28A-expressing HeLa, CPP-peptide, replicate set1
# [3] = LIN28A-expressing HeLa, CPP-peptide, replicate set2
# [4] = LIN28A-expressing HeLa, CPP-peptide, replicate set3
Substance,"increased Gl Ter and GPx1 Ter levels caused by LIN28A ([1]; LIN28A-expressing HeLa, 2 μM, 12 h)","levels of OCT4 and NANOG (CHA15 cells; CHA15, proliferative state)","relative GPx1 mRNA level [1, 2]","relative Gl mRNA level [1, 2]","relative GPx1 mRNA level [1, 3]","relative Gl mRNA level [1, 3]","relative GPx1 mRNA level [1, 4]","relative Gl mRNA level [1, 4]","GPx1 mRNA, mean ([1]; LIN28A-expressing HeLa, CPP-peptide, mean in t-test output, n = 3)","GPx1 mRNA, difference between means (C - B) ± SEM ([1]; LIN+P8 minus LIN+P1)","Gl mRNA, difference between means (C - B) ± SEM ([1]; LIN+P8 minus LIN+P1)","NANOG-positive cells, fluorescence quantification, mean (CHA15 cells)","OCT4-positive cells, fluorescence quantification, mean (CHA15 cells)","NANOG fluorescence, difference between means vs P1 ± SEM (CHA15 cells)","OCT4 fluorescence, difference between means vs P1 ± SEM (CHA15 cells)","relative Gl mRNA level ([1]; FLAG control (no LIN28A) HeLa, CPP-peptide, replicate set2)","relative GPx1 mRNA level ([1]; FLAG control (no LIN28A) HeLa, CPP-peptide, replicate set3)"
"KKKWCRKKKSSADEKRYRALKRTAERELLMNA [CPP-P8, CPP conjugated to P8]",efficiently reversed by CPP-P8,significantly decreased,,,,,,,,,,,,,,,
KKKWCRKKKSSADEKRYRALKRTAERELLMNA [P8],,,1.006,1.305,1.229,0.7968,0.4585,1.128,0.2385,-0.4015 ± 0.06473,-1.443 ± 0.3024,14.24,22.84,-71.49 ± 1.616,-69.57 ± 2.939,,
"N-MPELQKLQQLKDE-C [P2, peptide derived from the UPF1 (419–700) domain]",,,,,,,,,,,,81.51,89.62,-4.223 ± 2.867,-2.780 ± 1.262,,
"N-QKLDQKELQLEPM-C [P1, reference compound]",,,2.435,3.179,2.54,5.571,2.254,4.729,,,,85.74,92.4,,,1.21,1.026
